# Measured values as given in patent US20100022509A1, “Inhibitors of MshC and Homologs Thereof, and Methods of Identifying Same” (priority 2006, published 2010).
# Read-outs that look alike come from different tables or passages of the source.
# Target: T1, MshC (Mycobacterium tuberculosis, UniProt P9WJM9)
# T1 sequence (P9WJM9 1-414): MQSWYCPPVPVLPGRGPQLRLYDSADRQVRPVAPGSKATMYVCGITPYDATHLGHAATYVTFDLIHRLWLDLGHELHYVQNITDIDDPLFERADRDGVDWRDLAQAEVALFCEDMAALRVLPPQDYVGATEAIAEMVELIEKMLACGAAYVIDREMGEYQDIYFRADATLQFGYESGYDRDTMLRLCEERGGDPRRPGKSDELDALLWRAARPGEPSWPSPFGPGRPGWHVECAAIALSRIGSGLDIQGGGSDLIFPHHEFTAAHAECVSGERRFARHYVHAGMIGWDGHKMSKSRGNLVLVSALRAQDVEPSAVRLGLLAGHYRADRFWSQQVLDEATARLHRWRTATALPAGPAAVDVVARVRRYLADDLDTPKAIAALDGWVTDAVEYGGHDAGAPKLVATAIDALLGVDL
# Assay: biochemical
# Type: biochemical, M. tuberculosis
Compound,IC50 (IC50) [mM],also measured
"Nc1ncnc2c1ncn2[C@@H]1O[C@H](COS(=O)(=O)NC(=O)[C@@H](N)CS)[C@@H](O)[C@H]1O [5′-O-[N-(L-cysteinyl)sulfamoyl]adenosine, reference compound]",,"IC50 (assayed under the conditions described in [0186], read-out: IC50 (inhibits MshC)): ~4e-05 mM"
CCC1CCCCN1CCCNC(=O)c1ccc2c(c1)N(Cc1ccccc1F)C(=O)c1ccccc1[S+]2[O-] (stereo not drawn) [Inhibitor 83-01],> 3,
O=C(NCCCN1CCC(Cc2ccccc2)CC1)c1ccc2c(c1)N(Cc1ccccc1F)C(=O)c1ccccc1[S+]2[O-] (stereo not drawn) [Inhibitor 83-02],> 3,"inhibition of MshC in words, compounds lacking the basic amino group or with groups in excess of 10 carbons on the remote amino residue: little or no inhibition"
CN(CCCNC(=O)c1ccc2c(c1)N(Cc1ccccc1F)C(=O)c1ccccc1[S+]2[O-])C1CCCCC1 (stereo not drawn) [Inhibitor 83-03],> 3,
O=C(NCCCSC1CCCCC1)c1ccc2c(c1)N(Cc1ccccc1F)C(=O)c1ccccc1[S+]2[O-] (stereo not drawn) [Inhibitor 83-04],> 3,
CCCN(CCC)CCCNC(=O)c1ccc2c(c1)N(Cc1ccc(F)cc1)C(=O)c1ccccc1[S+]2[O-] (stereo not drawn) [Inhibitor 83-05],> 3,
CCN(CC)CCCNC(=O)c1ccc2c(c1)N(Cc1cc(C)ccc1C)C(=O)c1ccccc1[S+]2[O-] (stereo not drawn) [Inhibitor 83-06],> 3,
Cc1ccc(C)c(CN2C(=O)c3ccccc3[S+]([O-])c3ccc(C(=O)NCCCN4CCCCCC4)cc32)c1 (stereo not drawn) [Inhibitor 83-07],0.65 ± 0.05,"inhibition of MshC in words, 1,3-diaminopropyl residue with remote amino residue capable of protonation: measurable inhibition; inhibition of MshC in words, Z benzyl moiety with methyl groups in the 2,5 positions or unsubstituted: Weak but detectable inhibition; inhibition of MshC in words, compounds grouped by X (X=S, X=SO, X=SO2): Significant inhibition"
Cc1ccc(C)c(CN2C(=O)c3ccccc3[S+]([O-])c3ccc(C(=O)NCCCN(C)C4CCCCC4)cc32)c1 (stereo not drawn) [Inhibitor 83-08],~3,"inhibition of MshC in words, compounds grouped by X (X=S, X=SO, X=SO2): Significant inhibition"
Cc1ccc(C)c(CN2C(=O)c3ccccc3[S+]([O-])c3ccc(C(=O)NCCCSC4CCCCC4)cc32)c1 (stereo not drawn) [Inhibitor 83-09],> 3,
O=C(NCCCN1CCOCC1)c1ccc2c(c1)N(Cc1ccccc1)C(=O)c1ccccc1[S+]2[O-] (stereo not drawn) [Inhibitor 83-10],> 3,
CN(CCCNC(=O)c1ccc2c(c1)N(Cc1ccccc1)C(=O)c1ccccc1[S+]2[O-])C1CCCCC1 (stereo not drawn) [Inhibitor 83-11],0.4 ± 0.1,"inhibition of MshC in words, 1,3-diaminopropyl residue with remote amino residue capable of protonation: measurable inhibition; inhibition of MshC in words, compounds grouped by X (X=S, X=SO, X=SO2): Significant inhibition"
O=C(NCCCSC1CCCCC1)c1ccc2c(c1)N(Cc1ccccc1)C(=O)c1ccccc1[S+]2[O-] (stereo not drawn) [Inhibitor 83-12],> 3,"inhibition of MshC in words, compounds lacking the basic amino group or with groups in excess of 10 carbons on the remote amino residue: little or no inhibition"
CCN1C(=O)c2ccccc2[S+]([O-])c2ccc(C(=O)NCCCN3CCOCC3)cc21 (stereo not drawn) [Inhibitor 83-13],> 3,
CCN1C(=O)c2ccccc2[S+]([O-])c2ccc(C(=O)NCCCN3CCN(C)CC3)cc21 (stereo not drawn) [Inhibitor 83-14],> 3,
CCN1C(=O)c2ccccc2[S+]([O-])c2ccc(C(=O)NCCCN3CCCCCC3)cc21 (stereo not drawn) [Inhibitor 83-15],> 3,
CCCN(CCC)CCCNC(=O)c1ccc2c(c1)N(CC)C(=O)c1ccccc1[S+]2[O-] (stereo not drawn) [Inhibitor 83-16],> 3,
CCCCN(CCCC)CCCNC(=O)c1ccc2c(c1)N(CC)C(=O)c1ccccc1[S+]2[O-] (stereo not drawn) [Inhibitor 83-17],> 3,
CCN1C(=O)c2ccccc2[S+]([O-])c2ccc(C(=O)NCCCSC3CCCCC3)cc21 (stereo not drawn) [Inhibitor 83-18],> 3,
CCN1C(=O)c2ccccc2S(=O)(=O)c2ccc(C(=O)NCCCN3CCCCCC3)cc21 [Inhibitor 83-19],~3,
CCCCN(CC)CCCNC(=O)c1ccc2c(c1)N(CC)C(=O)c1ccccc1S2(=O)=O [Inhibitor 83-20],> 3,
CCC1CCCCN1CCCNC(=O)c1ccc2c(c1)N(Cc1cccc(C)c1)C(=O)c1ccccc1S2(=O)=O (stereo not drawn) [Inhibitor 83-21],~2,
Cc1cccc(CN2C(=O)c3ccccc3S(=O)(=O)c3ccc(C(=O)NCCCN4CCCC4)cc32)c1 [Inhibitor 83-22],> 3,
Cc1cccc(CN2C(=O)c3ccccc3S(=O)(=O)c3ccc(C(=O)NCCCN4CCCCCC4)cc32)c1 [Inhibitor 83-23],> 3,

Compound,IC50 (IC50) [mM],also measured
CCCCN(C)CCCNC(=O)c1ccc2c(c1)N(Cc1cccc(C)c1)C(=O)c1ccccc1S2(=O)=O [Inhibitor 83-24],1.5 ± 0.5,
Cc1cccc(CN2C(=O)c3ccccc3S(=O)(=O)c3ccc(C(=O)NCCCN(C)C4CCCCC4)cc32)c1 [Inhibitor 83-25],> 3,
O=C(NCCCN1CCN(c2cccc(Cl)c2)CC1)c1ccc2c(c1)N(Cc1ccc(Cl)cc1)C(=O)c1ccccc1S2(=O)=O [Inhibitor 83-26],> 3,"inhibition of MshC in words, compounds lacking the basic amino group or with groups in excess of 10 carbons on the remote amino residue: little or no inhibition"
CCC1CCCCN1CCCNC(=O)c1ccc2c(c1)N(Cc1ccc(Cl)cc1)C(=O)c1ccccc1S2(=O)=O (stereo not drawn) [Inhibitor 83-27],0.7 ± 0.25,"inhibition of MshC in words, 1,3-diaminopropyl residue with remote amino residue capable of protonation: measurable inhibition; inhibition of MshC in words, Z is a benzyl moiety bearing one or more halogens: Measurable inhibition; inhibition of MshC in words, compounds grouped by X (X=S, X=SO, X=SO2): Significant inhibition"
O=C(NCCCN1CCCC1)c1ccc2c(c1)N(Cc1ccc(Cl)cc1)C(=O)c1ccccc1S2(=O)=O [Inhibitor 83-28],0.25 ± 0.1,"inhibition of MshC in words, 1,3-diaminopropyl residue with remote amino residue capable of protonation: measurable inhibition; inhibition of MshC in words, Z is a benzyl moiety bearing one or more halogens: Measurable inhibition; inhibition of MshC in words, compounds grouped by X: Significant inhibition"
CC1CC(C)CN(CCCNC(=O)c2ccc3c(c2)N(Cc2ccc(Cl)cc2)C(=O)c2ccccc2S3(=O)=O)C1 (stereo not drawn) [Inhibitor 83-29],> 3,
CC1CCCCN1CCNC(=O)c1ccc2c(c1)N(Cc1ccc(Cl)cc1)C(=O)c1ccccc1S2(=O)=O (stereo not drawn) [Inhibitor 83-30],> 3,
O=C(NCCCN1CCN(c2ccc(F)cc2)CC1)c1ccc2c(c1)N(Cc1ccc(Cl)cc1)C(=O)c1ccccc1S2(=O)=O [Inhibitor 83-32],~2,"inhibition of MshC in words, compounds lacking the basic amino group or with groups in excess of 10 carbons on the remote amino residue: little or no inhibition"
O=C(NCCCN1CCC(Cc2ccccc2)CC1)c1ccc2c(c1)N(Cc1ccc(Cl)cc1)C(=O)c1ccccc1S2(=O)=O [Inhibitor 83-33],> 3,"inhibition of MshC in words, compounds lacking the basic amino group or with groups in excess of 10 carbons on the remote amino residue: little or no inhibition"
CC(C)CN(CCCNC(=O)c1ccc2c(c1)N(Cc1ccc(Cl)cc1)C(=O)c1ccccc1S2(=O)=O)CC(C)C [Inhibitor 83-34],> 3,
CN(CCCNC(=O)c1ccc2c(c1)N(Cc1ccc(Cl)cc1)C(=O)c1ccccc1S2(=O)=O)C1CCCCC1 [Inhibitor 83-35],0.35 ± 0.04,"inhibition of MshC in words, compounds grouped by X (X=S, X=SO, X=SO2): Significant inhibition"
CN(CCCNC(=O)c1ccc2c(c1)N(Cc1ccc(Cl)cc1)C(=O)c1ccccc1S2(=O)=O)c1ccccc1 [Inhibitor 83-36],> 3,
O=C(NCCN1CCCC1)c1ccc2c(c1)N(Cc1ccccc1F)C(=O)c1ccccc1S2(=O)=O [Inhibitor 83-39],0.1 ± 0.02,"inhibition of MshC in words, 1,3-diaminopropyl residue with remote amino residue capable of protonation: measurable inhibition; inhibition of MshC in words, Z is a benzyl moiety bearing one or more halogens: Measurable inhibition; inhibition of MshC in words, compounds grouped by X (X=S, X=SO, X=SO2): Significant inhibition"
CC1CCCN(CCCNC(=O)c2ccc3c(c2)N(Cc2ccccc2F)C(=O)c2ccccc2S3(=O)=O)C1 (stereo not drawn) [Inhibitor 83-40],0.1 ± 0.03,"inhibition of MshC in words, 1,3-diaminopropyl residue with remote amino residue capable of protonation: measurable inhibition; inhibition of MshC in words, Z is a benzyl moiety bearing one or more halogens: Measurable inhibition; inhibition of MshC in words, compounds grouped by X (X=S, X=SO, X=SO2): Significant inhibition"
O=C(NCCN1CCN(Cc2ccccc2)CC1)c1ccc2c(c1)N(Cc1ccccc1F)C(=O)c1ccccc1S2(=O)=O [Inhibitor 83-42],> 3,"inhibition of MshC in words, compounds lacking the basic amino group or with groups in excess of 10 carbons on the remote amino residue: little or no inhibition"
Cc1ccc(C)c(CN2C(=O)c3ccccc3S(=O)(=O)c3ccc(C(=O)NCCCN4CCOCC4)cc32)c1 [Inhibitor 83-43],> 3,
Cc1ccc(C)c(CN2C(=O)c3ccccc3S(=O)(=O)c3ccc(C(=O)NCCCN4CCCCCC4)cc32)c1 [Inhibitor 83-44],> 0.5,"inhibition of MshC in words, 1,3-diaminopropyl residue with remote amino residue capable of protonation: measurable inhibition"
Cc1ccc(C)c(CN2C(=O)c3ccccc3S(=O)(=O)c3ccc(C(=O)NCCN4CCCCC4C)cc32)c1 (stereo not drawn) [Inhibitor 83-45],> 3,
Cc1ccc(C)c(CN2C(=O)c3ccccc3S(=O)(=O)c3ccc(C(=O)NCCCN(C)C4CCCCC4)cc32)c1 [Inhibitor 83-46],≥ 0.5,
Cc1ccc(C)c(CN2C(=O)c3ccccc3S(=O)(=O)c3ccc(C(=O)NCCCSC4CCCCC4)cc32)c1 [Inhibitor 83-47],> 3,"inhibition of MshC in words, compounds lacking the basic amino group or with groups in excess of 10 carbons on the remote amino residue: little or no inhibition"
CCC1CCCCN1CCCNC(=O)c1ccc2c(c1)N(Cc1ccccc1)C(=O)c1ccccc1S2(=O)=O (stereo not drawn) [Inhibitor 83-48],≥ 0.5,
CC1CC(C)CN(CCCNC(=O)c2ccc3c(c2)N(Cc2ccccc2)C(=O)c2ccccc2S3(=O)=O)C1 (stereo not drawn) [Inhibitor 83-49],~2,
CCN1CCN(CCCNC(=O)c2ccc3c(c2)N(Cc2ccccc2)C(=O)c2ccccc2S3(=O)=O)CC1 [Inhibitor 83-50],> 3,
CC1CCCN(CCCNC(=O)c2ccc3c(c2)N(Cc2ccccc2)C(=O)c2ccccc2S3(=O)=O)C1 (stereo not drawn) [Inhibitor 83-51],1.7 ± 0.4,
